Source: US20150038589A1, “Nutritional Product Comprising a Biguanide” (priority 2011, published 2015)

What was measured:
[1] = Cookie comprising metformin consumed by human volunteers; blood samples; type: in vivo; conditions: one cookie (250 mg metformin); for concentration at 1 h / concentration at 2 h / concentration at 4 h / concentration at 0 h: human, blood, oral, 250 mg, empty stomach; for concentration at 1 h: 1 hr after consumption; for concentration at 2 h: 2 hrs after consumption; for concentration at 4 h: 4 hrs after consumption; for concentration at 0 h: before consumption
Procedure: A cookie dough was prepared comprising 1000 mg fine-ground metformin per 100 g conventional cookie dough, by mixing fine-ground metformin into the dough. 40 droplets of lemon juice per 100 g dough were added to the dough comprising the metformin, in order to neutralise the bitter taste of the metformin. Thereafter, the dough was divided in pieces of 25 g, from which pieces cookies were baked in a conventional way.
Human volunteers each consumed one cookie (providing 250 mg metformin) on an empty stomach. Blood samples were taken before consumption, 1 hour after consumption, 2 hours after consumption and 4 hours after consumption.

[2] = cited from earlier work
[3] = Clinical test: double-blind trial of yoghurt drink with added metformin, 6 weeks; conditions: for Hyperinsulinaemia Internationale Unit / fasting glucose: change after 42 days
[4] = Stability test of metformin in yoghurt (pH and metformin content); type: physicochemical
Procedure: Yoghurt is prepared as described in Example 3. A batch comprising no metformin (placebo), a batch comprising 200 mg metformin per 100 gram (low dosage) and a batch comprising 360 mg metformin (high dosage) were made.
Part of the batches were stored in a fridge (about 4° C.), other parts at room temperature (about 20° C.). Product stability was determined by measuring pH and the metformin content (measured amount as a percentage of the added amount), weekly for a period of 35 days. […] Stability at room temperature was determined for only 35 days. Tables 6 and 7 show the measured amount of metformin in both products comprising metformin (relative to calculated amount=100%). No metformin was measured in the placebo.

[5] = up to 4 hours after consumption
[6] = Trial group I (n = 6), 250 mg metformin/day in yoghurt, after 42 days
[7] = Trial group I (n = 6), 250 mg metformin/day in yoghurt
[8] = Trial group II (n = 4), 450 mg metformin/day in yoghurt, after 42 days
[9] = Trial group II (n = 4), 450 mg metformin/day in yoghurt
[10] = subjects with the product of the invention, after 42 days

- concentration at 1 h ([1]; subject 1): < 500 ng/mL
- concentration at 2 h ([1]; subject 1): 700 ng/mL
- concentration at 4 h ([1]; subject 1): 800 ng/mL
- concentration at 0 h ([1]; subject 1): < 500 ng/mL
- concentration at 1 h ([1]; subject 2): < 500 ng/mL
- concentration at 2 h ([1]; subject 2): < 500 ng/mL
- concentration at 4 h ([1]; subject 2): 600 ng/mL
- concentration at 0 h ([1]; subject 2): < 500 ng/mL
- concentration at 24 h ([3]; both, human, blood, oral): < 250 ng/mL
- degradation of metformin in a fermented (acidic) product ([4]; 28 days (room temperature) or 35 days (refrigerator temperature)): no substantial degradation
- storage stability in a nutritional product ([4]; metformin included in a nutritional product): at least 5 weeks
SMILES: CN(C)C(=N)NC(=N)N [metformin, N,N-dimethylimidodicarbonimidic diamide]
- negative side-effects ([1]; during the experiment): no negative side-effects were observed
- glucose levels in blood samples [1, 5]: no significant changes
- lipid levels in blood samples [1, 5]: no significant changes
- subjects with a reduction in B12 levels in blood ([2]; conventional dosage form such as a tablet): about 30%
- subjects suffering from stomach complaints and diarrhoea ([2]; conventional pharmaceutical composition comprising biguanide (metformin)): roughly 30%
- insulin resistance improvement (HOMA-2) [3, 6]: −0.13
- side-effects: abdominal pain (number of subjects) [3, 6]: 0
- side-effects: diarrhoea (number of subjects) [3, 6]: 0
- side-effects: fatigue (number of subjects) [3, 6]: 0
- side-effects: reflux (number of subjects) [3, 6]: 0
- side-effects: stomach pain (number of subjects) [3, 6]: 1
- side-effects: vertigo (number of subjects) [3, 6]: 0
- Δ waist size [3, 6]: −2.0 cm
- Δ weight [3, 6]: -1.9 kg
- Hyperinsulinaemia Internationale Unit [3, 7]: −1.4 Internationale Unit
- fasting glucose [3, 7]: -0.12 mmol/L
- insulin resistance improvement (HOMA-2) [3, 8]: −3.9
- side-effects: abdominal pain (number of subjects) [3, 8]: 0
- side-effects: diarrhoea (number of subjects) [3, 8]: 0
- side-effects: fatigue (number of subjects) [3, 8]: 0
- side-effects: reflux (number of subjects) [3, 8]: 0
- side-effects: stomach pain (number of subjects) [3, 8]: 0
- side-effects: vertigo (number of subjects) [3, 8]: 0
- Δ waist size [3, 8]: −3.1 cm
- Δ weight [3, 8]: -1.9 kg
- Hyperinsulinaemia Internationale Unit [3, 9]: −3.9 Internationale Unit
- fasting glucose [3, 9]: -0.68 mmol/L
- subjects indicating a reduced appetite ([3]; out of 10 subjects in the trial group (1 in the placebo group)): 4
- reduction in waist size compared to the placebo [3, 10]: 2-3 fold
- weight loss compared to the placebo [3, 10]: 3 fold
- blood HDL concentration change ([3]; trial group I, after 42 days): No change
- decrease in pulse ([3]; trial group I, after 42 days): −6
- blood HDL concentration change ([3]; trial group II (450 mg metformin per day), after 42 days): +0.12
- decrease in pulse ([3]; trial group II, after 42 days): −2
